# Data: PubChem BioAssay (NCI)
#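 The compound was tested at five concentrations on cells cultured in 96-well plates, with a 48-hour exposure period. At the GI50, growth is halved. TGI marks complete inhibition of growth.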
# Legend:
# Assay in all cases: NCI tumour cell line growth inhibition, 48 h
# NCI-H23 lung = test system: NCI-H23 lung
# NCI-H460 lung = test system: NCI-H460 lung
# NCI-H522 lung = test system: NCI-H522 lung
# NCI/ADR-RES ovarian = test system: NCI/ADR-RES ovarian
# OVCAR-3 ovarian = test system: OVCAR-3 ovarian
# OVCAR-4 ovarian = test system: OVCAR-4 ovarian
# OVCAR-5 ovarian = test system: OVCAR-5 ovarian
# OVCAR-8 ovarian = test system: OVCAR-8 ovarian
# PC-3 prostate = test system: PC-3 prostate
# RPMI-8226 leukemia = test system: RPMI-8226 leukemia
# RXF 393 renal = test system: RXF 393 renal
# SF-268 CNS = test system: SF-268 CNS
# SF-295 CNS = test system: SF-295 CNS
# SF-539 CNS = test system: SF-539 CNS
# SK-MEL-2 melanoma = test system: SK-MEL-2 melanoma
# SK-MEL-28 melanoma = test system: SK-MEL-28 melanoma
# SK-MEL-5 melanoma = test system: SK-MEL-5 melanoma
# SK-OV-3 ovarian = test system: SK-OV-3 ovarian
# SN12C renal = test system: SN12C renal
# SNB-19 CNS = test system: SNB-19 CNS
# SNB-75 CNS = test system: SNB-75 CNS
# SR leukemia = test system: SR leukemia
# SW-620 colon = test system: SW-620 colon
# T-47D breast = test system: T-47D breast
# TK-10 renal = test system: TK-10 renal
# U251 CNS = test system: U251 CNS
# UACC-257 melanoma = test system: UACC-257 melanoma
# UACC-62 melanoma = test system: UACC-62 melanoma
# UO-31 renal = test system: UO-31 renal
smiles,measurement,setting,value
CN1CCN(C(=O)[C@@]2(C)CC[C@]3(C)CC[C@]4(C)C(=CC[C@@H]5[C@@]6(C)CCC(=O)NC(C)(C)[C@@H]6CC[C@]54C)[C@@H]3C2)CC1,GI50,NCI-H23 lung,2480 nM
same,TGI,NCI-H23 lung,8910 nM
same,GI50,NCI-H460 lung,1690 nM
same,TGI,NCI-H460 lung,3300 nM
same,GI50,NCI-H522 lung,1780 nM
same,TGI,NCI-H522 lung,3750 nM
same,GI50,NCI/ADR-RES ovarian,3000 nM
same,TGI,NCI/ADR-RES ovarian,11900 nM
same,GI50,OVCAR-3 ovarian,2010 nM
same,TGI,OVCAR-3 ovarian,4700 nM
same,GI50,OVCAR-4 ovarian,2940 nM
same,TGI,OVCAR-4 ovarian,13000 nM
same,GI50,OVCAR-5 ovarian,1650 nM
same,TGI,OVCAR-5 ovarian,3170 nM
same,GI50,OVCAR-8 ovarian,3940 nM
same,TGI,OVCAR-8 ovarian,14800 nM
same,GI50,PC-3 prostate,813 nM
same,TGI,PC-3 prostate,2420 nM
same,GI50,RPMI-8226 leukemia,1430 nM
same,TGI,RPMI-8226 leukemia,3740 nM
same,GI50,RXF 393 renal,1060 nM
same,TGI,RXF 393 renal,2520 nM
same,GI50,SF-268 CNS,3040 nM
same,TGI,SF-268 CNS,14400 nM
same,GI50,SF-295 CNS,1530 nM
same,TGI,SF-295 CNS,3070 nM
same,GI50,SF-539 CNS,1560 nM
same,TGI,SF-539 CNS,2900 nM
same,GI50,SK-MEL-2 melanoma,1940 nM
same,TGI,SK-MEL-2 melanoma,3840 nM
same,GI50,SK-MEL-28 melanoma,1560 nM
same,TGI,SK-MEL-28 melanoma,2970 nM
same,GI50,SK-MEL-5 melanoma,1640 nM
same,TGI,SK-MEL-5 melanoma,3060 nM
same,GI50,SK-OV-3 ovarian,1840 nM
same,TGI,SK-OV-3 ovarian,3870 nM
same,GI50,SN12C renal,1460 nM
same,TGI,SN12C renal,3300 nM
same,GI50,SNB-19 CNS,1810 nM
same,TGI,SNB-19 CNS,3560 nM
same,GI50,SNB-75 CNS,1570 nM
same,TGI,SNB-75 CNS,3340 nM
same,GI50,SR leukemia,391 nM
same,TGI,SR leukemia,4470 nM
same,GI50,SW-620 colon,1870 nM
same,TGI,SW-620 colon,3930 nM
same,GI50,T-47D breast,1620 nM
same,TGI,T-47D breast,4210 nM
same,GI50,TK-10 renal,1800 nM
same,TGI,TK-10 renal,3420 nM
same,GI50,U251 CNS,1380 nM
same,TGI,U251 CNS,2820 nM
same,GI50,UACC-257 melanoma,2100 nM
same,TGI,UACC-257 melanoma,4720 nM
same,GI50,UACC-62 melanoma,1550 nM
same,TGI,UACC-62 melanoma,3030 nM
same,GI50,UO-31 renal,1190 nM
same,TGI,UO-31 renal,2510 nM
